Experimental findings from ChEMBL document CHEMBL1201862, “PubChem BioAssay data set” (2004) are described below.

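48-hour exposure; five concentrations; linearly interpolated endpoints. Here, GI50 denotes the concentration required for 50% inhibition of growth.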 The source made the active and inactive calls. Rule as the data show it: active = GI50 up to about 1.1 µM and inactive = higher.

Some test systems named below: CCRF-CEM; COLO 205; K562; KM12; M14; MOLT-4; Malme-3M; NCI-H23; OVCAR-4; OVCAR-5; OVCAR-8; PC-3; SF-268; SF-295; SK-MEL-2; SK-OV-3; U-251; UACC-257; UO-31.
What all share (test): growth of human tumour cells (NCI), 48 h

With `O=C1C(Br)=C(C2=CC(=P(c3ccccc3)(c3ccccc3)c3ccccc3)C=C2)C(=O)C(Br)=C1C1=CC(=P(c2ccccc2)(c2ccccc2)c2ccccc2)C=C1`, the GI50 in the assay on CCRF-CEM was > 100 µM (inactive); with COLO 205, > 100 µM (inactive); in the assay with K562, > 100 µM (inactive); in the assay with KM12 it was > 100 µM (inactive); with M14, 12.6 µM (inactive); in the assay with MOLT-4 it was > 100 µM (inactive). Moreover, the GI50 with Malme-3M was 18.3 µM (inactive); in the assay on NCI-H23, > 100 µM (inactive); with OVCAR-4, 76 µM (inactive); with OVCAR-5, 17.9 µM (inactive); in the assay on OVCAR-8, > 100 µM (inactive); in the assay on PC-3, > 100 µM (inactive). Moreover, the GI50 in the assay on SF-268 is > 100 µM (inactive); in the assay with SF-295 it was > 100 µM (inactive); with SK-MEL-2 it was > 100 µM (inactive); with SK-OV-3, > 100 µM (inactive); in the assay with U-251, 16.9 µM (inactive); in the assay with UACC-257 it was 33.3 µM (inactive). The GI50 in the assay with UO-31 was > 100 µM (inactive).

Take `CCCCCCCCCCCCCCCC(=O)OCC1OC(n2cc(F)c(=O)[nH]c2=O)C(NC(=O)N(CCCl)N=O)C(O)C1O` (stereo not given): the GI50 in the assay with CCRF-CEM was 0.611 µM (active); in the assay on COLO 205, 4.41 µM (inactive); in the assay on K562, 1.76 µM (inactive); with KM12, 1.86 µM (inactive); with M14, 4.06 µM (inactive); in the assay with MOLT-4, 1.21 µM (inactive). Also, the GI50 is 4.47 µM (inactive) in the assay on Malme-3M; 0.731 µM (active) with NCI-H23; 7.96 µM (inactive) in the assay on OVCAR-4; 13.1 µM (inactive) with OVCAR-5; 3.86 µM (inactive) with OVCAR-8; 0.0246 µM (active) in the assay with SF-268. Further, the GI50 in the assay with SF-295 is 0.156 µM (active); with SK-MEL-2 it was 1.35 µM (inactive); in the assay on SK-OV-3, 5.45 µM (inactive); with U-251, 0.0585 µM (active); in the assay with UACC-257 it was 5.94 µM (inactive); with UO-31 it was 12.3 µM (inactive).

For the molecule `O=c1[nH]cc(OCC(F)(F)F)c(=O)[nH]1`, the GI50 in the assay with CCRF-CEM, in the assay on COLO 205, in the assay on K562, in the assay with KM12, in the assay on M14 and in the assay on MOLT-4 was > 100 µM (inactive) each time. The GI50 in the assay on Malme-3M, with NCI-H23, with OVCAR-4, with OVCAR-5, in the assay on OVCAR-8 and in the assay on SF-268 was > 100 µM (inactive) each time. For the same molecule, the GI50 in the assay on SF-295, with SK-MEL-2, in the assay on SK-OV-3, with U-251, with UACC-257 and in the assay on UO-31 was > 100 µM (inactive) throughout.

`COc1cc(-c2cccs2)sc1-c1cccs1`: the GI50 is 29.3 µM (inactive) in the assay with CCRF-CEM; 13.2 µM (inactive) in the assay on COLO 205; 13.6 µM (inactive) with K562; 27.7 µM (inactive) in the assay with KM12; 35.3 µM (inactive) in the assay on M14; 32.6 µM (inactive) in the assay on MOLT-4. Further, the GI50 was 39 µM (inactive) in the assay on Malme-3M; 15.7 µM (inactive) in the assay on NCI-H23; 50.2 µM (inactive) in the assay on OVCAR-4; 22.3 µM (inactive) in the assay with OVCAR-5; 97.1 µM (inactive) in the assay with OVCAR-8; 53.6 µM (inactive) in the assay with SF-268. The GI50 is 23.3 µM (inactive) in the assay on SF-295; 31.5 µM (inactive) in the assay on SK-MEL-2; 31 µM (inactive) in the assay on SK-OV-3; 43.6 µM (inactive) with U-251; 39.7 µM (inactive) with UACC-257; 38.2 µM (inactive) in the assay on UO-31.

For `Cc1cc(-c2c(F)cc3c4nn([C@H]5CC[C@@H](N(C)C)CC5)c(=O)c-4cn(C4CC4)c3c2F)cc(C)n1`, the GI50 in the assay with CCRF-CEM was 0.0452 µM (active); with COLO 205, 0.208 µM (active); in the assay on K562, 0.0297 µM (active); with KM12, 0.313 µM (active); with M14, 0.46 µM (active); in the assay on MOLT-4, < 0.0316 µM (active). The GI50 with Malme-3M was 0.38 µM (active); with NCI-H23 it was 0.132 µM (active); in the assay on OVCAR-4, 3.36 µM (inactive); in the assay on OVCAR-5 it was 1.42 µM (inactive); with OVCAR-8 it was 0.221 µM (active); in the assay with PC-3 it was 1.56 µM (inactive). Moreover, the GI50 in the assay with SF-268 was 0.119 µM (active); in the assay on SF-295, 0.169 µM (active); in the assay on SK-MEL-2, 0.82 µM (active); with SK-OV-3, 0.183 µM (active); in the assay with U-251 it was 0.105 µM (active); in the assay with UACC-257, 1.25 µM (inactive). For the same molecule, the GI50 in the assay with UO-31 is 1.59 µM (inactive).

Regarding `CC(=O)NNc1nc(C)c(C(=O)NNC(=O)C(=O)Nc2ccc(C)cc2[N+](=O)[O-])s1`, the GI50 is 46.1 µM (inactive) with CCRF-CEM; > 100 µM (inactive) in the assay with COLO 205; > 100 µM (inactive) in the assay on K562; > 100 µM (inactive) in the assay with KM12; > 100 µM (inactive) in the assay on M14; 98.4 µM (inactive) in the assay with MOLT-4. The GI50 in the assay with Malme-3M, in the assay with NCI-H23, in the assay on OVCAR-4, in the assay on OVCAR-5, in the assay on OVCAR-8 and in the assay with SF-268 was > 100 µM (inactive) each time. For the same molecule, the GI50 with SF-295, in the assay with SK-MEL-2, in the assay on SK-OV-3, with U-251, with UACC-257 and with UO-31 was > 100 µM (inactive) throughout.

Regarding `S=c1sc2c(Cl)nc(Cl)nc2n1-c1ccccc1`, the GI50 is 23.1 µM (inactive) in the assay with CCRF-CEM; > 100 µM (inactive) with COLO 205; 29 µM (inactive) with K562; > 100 µM (inactive) in the assay with KM12; 21.1 µM (inactive) in the assay on M14; 32.4 µM (inactive) in the assay on MOLT-4. The GI50 with Malme-3M is 8.11 µM (inactive); in the assay with NCI-H23, 15.7 µM (inactive); in the assay with OVCAR-4, 41.3 µM (inactive); in the assay with OVCAR-5 it was > 100 µM (inactive); in the assay with OVCAR-8 it was 36.6 µM (inactive); with SF-268, 11.1 µM (inactive). The GI50 in the assay on SF-295 was > 100 µM (inactive); in the assay on SK-MEL-2 it was 31.7 µM (inactive); in the assay with SK-OV-3, > 100 µM (inactive); in the assay with U-251, 31 µM (inactive); in the assay with UACC-257, 53 µM (inactive); in the assay with UO-31, > 100 µM (inactive).

Consider `CC(C)COC(=O)N1N=NC2C3OC(CC3=O)C21` (stereo not given), for which the GI50 in the assay on CCRF-CEM, in the assay on COLO 205, in the assay on K562, in the assay on KM12, in the assay on M14 and in the assay on MOLT-4 was > 100 µM (inactive) each time. Also, the GI50 with Malme-3M, in the assay on NCI-H23, in the assay with OVCAR-4, in the assay on OVCAR-5, in the assay with OVCAR-8 and in the assay on SF-268 was > 100 µM (inactive) in each case. Moreover, the GI50 with SF-295 is > 100 µM (inactive); with SK-MEL-2 it was > 100 µM (inactive); with SK-OV-3 it was 40.4 µM (inactive); with U-251, > 100 µM (inactive); in the assay on UACC-257, > 100 µM (inactive); in the assay on UO-31, > 100 µM (inactive).

`CCCCCCCCCCCCCC(=O)OCC1OC(=O)CC1O` (stereo not given): the GI50 is 42 µM (inactive) with CCRF-CEM; > 100 µM (inactive) in the assay on COLO 205; 24.9 µM (inactive) with K562; 81.5 µM (inactive) with KM12; 21.9 µM (inactive) in the assay on M14; 35.2 µM (inactive) in the assay on MOLT-4. Also, the GI50 in the assay with Malme-3M, in the assay on NCI-H23, in the assay on OVCAR-4, in the assay with OVCAR-5, with OVCAR-8 and with SF-268 was > 100 µM (inactive) throughout. The GI50 is 35.2 µM (inactive) with SF-295; > 100 µM (inactive) in the assay on SK-MEL-2; > 100 µM (inactive) in the assay on SK-OV-3; > 100 µM (inactive) in the assay on U-251; > 100 µM (inactive) in the assay on UACC-257; 20.2 µM (inactive) in the assay with UO-31.

In the case of `C[C@@H]1[C@H](c2ccccc2)O[B-]2(c3ccc(Br)cc3)OC(=O)C[N+]12C` (stereo not given in full), the GI50 was > 100 µM (inactive) in the assay on CCRF-CEM; > 100 µM (inactive) in the assay on COLO 205; 98.9 µM (inactive) in the assay with K562; > 100 µM (inactive) in the assay on KM12; > 100 µM (inactive) in the assay with M14; 86.5 µM (inactive) with MOLT-4. Moreover, the GI50 in the assay with Malme-3M was > 100 µM (inactive); in the assay with NCI-H23 it was > 100 µM (inactive); in the assay with OVCAR-4 it was > 100 µM (inactive); in the assay with OVCAR-5, > 100 µM (inactive); in the assay with OVCAR-8 it was > 100 µM (inactive); in the assay on SF-268 it was 94.2 µM (inactive). Further, the GI50 in the assay on SF-295 is > 100 µM (inactive); in the assay on SK-MEL-2, > 100 µM (inactive); in the assay on SK-OV-3, > 100 µM (inactive); in the assay on U-251, > 100 µM (inactive); with UACC-257, > 100 µM (inactive); in the assay on UO-31 it was 66.5 µM (inactive).

As to `COc1ccc(C2Oc3c(cc(O)c(OC)c3C)[C@@H]2C)cc1OC` (stereo not given in full), the GI50 in the assay on CCRF-CEM is 78.5 µM (inactive); in the assay on COLO 205, > 100 µM (inactive); in the assay on K562, 47.9 µM (inactive); in the assay with KM12, > 100 µM (inactive); in the assay on M14, > 100 µM (inactive); with MOLT-4 it was 76.2 µM (inactive). The GI50 in the assay with Malme-3M is > 100 µM (inactive); in the assay on NCI-H23, > 100 µM (inactive); in the assay on OVCAR-4, 42.4 µM (inactive); in the assay with OVCAR-5 it was > 100 µM (inactive); with OVCAR-8 it was > 100 µM (inactive); in the assay with SF-268, > 100 µM (inactive). For the same molecule, the GI50 with SF-295 is > 100 µM (inactive); in the assay with SK-MEL-2 it was > 100 µM (inactive); in the assay on SK-OV-3 it was > 100 µM (inactive); in the assay with U-251 it was > 100 µM (inactive); in the assay with UACC-257 it was 45 µM (inactive); with UO-31, 66.5 µM (inactive).
